Assay results from ChEMBL document CHEMBL5352404, “Synthesis and evaluation of novel furanones as biofilm inhibitors in opportunistic human pathogens” (Eur J Med Chem, 2022).
Active and inactive are the calls of the source. The rule behind the calls is not given here.

Test system: Pseudomonas aeruginosa
Assay: Inhibition of biofilm formation in eYFP labeled Pseudomonas aeruginosa PAO1 at 50 uM incubated for 24 hrs by crystal violet staining based analysis relative to control
Assay type: functional
Conditions: not given

SMILES | inhibition at 50 µM [%]
O=C1C=C(CBr)C(=C(Br)Br)O1 | 60
O=C1C=CC(=C(Cl)Cl)O1 | 52
COc1ccccc1C(=C1C=CC(=O)O1)c1ccccc1OC | 41

Test system: Pseudomonas aeruginosa
Assay: Antibacterial activity against eYFP labeled Pseudomonas aeruginosa PAO1 assessed as inhibition of bacterial growth at 50 uM incubated for 20 hrs by broth microdilution method relative to control
Assay type: functional
Set-up: scale not given: the % may be the effect or the level left
Conditions: not given

SMILES | Activity
O=C1C=C(CBr)C(=C(Br)Br)O1 | <=5%
O=C1C=CC(=C(c2ccc(C(F)(F)F)cc2)c2ccc(C(F)(F)F)cc2)O1 | <=5%
COc1cccc(/C(Br)=C2\C=CC(=O)O2)c1 | <=5%
O=C1C=CC(=C(c2ccc(F)cc2)c2ccc(F)cc2)O1 | <=5%
O=C1OC(=C(c2ccc(C(F)(F)F)cc2)c2ccc(C(F)(F)F)cc2)C=C1Br | <=5%
O=C1C=CC(=C(Cl)Cl)O1 | <=5%
COc1ccc(C(=C2C=C(Br)C(=O)O2)c2ccc(OC)cc2)cc1 | <=5%
O=C1C=CC(=C(c2cccs2)c2cccs2)O1 | <=5%
O=C1C=C/C(=C(/Br)c2ccc(F)cc2)O1 | <=5%
O=C1C=CC(=C(c2ccc(O)cc2)c2ccc(O)cc2)O1 | <=5%
O=C1OC(=C(c2ccccc2)c2ccccc2)C=C1Br | <=5%
O=C1C=C(CBr)C(=O)O1 | <=5%
COc1ccc(C(=C2C=CC(=O)O2)c2ccc(OC)cc2)cc1 | <=5%
O=C1C=C/C(=C(/Br)c2ccc([N+](=O)[O-])cc2)O1 | <=5%
COc1ccccc1/C(Br)=C1\C=CC(=O)O1 | <=5%
O=C1C=C/C(=C(/Br)c2cccc([N+](=O)[O-])c2)O1 | <=5%
O=C1C=C/C(=C(/Cl)c2ccccc2)O1 | <=5%
O=C1C=CC(=C(c2cccc([N+](=O)[O-])c2)c2cccc([N+](=O)[O-])c2)O1 | <=5%
COc1ccc(/C(Br)=C2\C=CC(=O)O2)cc1 | <=5%
O=C1C=C/C(=C(/Br)c2ccc(C(F)(F)F)cc2)O1 | <=5%
O=C1C=C/C(=C(/Br)c2ccccc2)O1 | <=5%
COc1ccccc1C(=C1C=CC(=O)O1)c1ccccc1OC | <=5%
O=C1C=CC(=C(c2ccc([N+](=O)[O-])cc2)c2ccc([N+](=O)[O-])cc2)O1 | <=5%
COc1ccc(/C(Cl)=C2\C=CC(=O)O2)cc1 | <=5%
O=C1C=CC(=C(c2ccccc2)c2ccccc2)O1 | <=5%

Test system: Salmonella typhimurium
Assay: Antibacterial activity against Salmonella enterica subsp. enterica serovar Typhimurium assessed as bacterial growth inhibition at 50 uM incubated for 20 hrs by broth microdilution method
Assay type: functional, organism-based
Conditions: not given

SMILES | Activity
O=C1C=C(CBr)C(=C(Br)Br)O1 | Active

Test system: Salmonella typhimurium
Assay: Antibiofilm activity against Salmonella enterica subsp. enterica serovar Typhimurium assessed as reduction in biofilm formation at 50 uM incubated for 24 hrs by crystal violet staining based assay relative to control
Assay type: functional
Set-up: scale not given: the % may be the effect or the level left
Conditions: not given

SMILES | Activity [%]
O=C1C=C(CBr)C(=C(Br)Br)O1 | 72

Test system: Candida albicans
Assay: Antibiofilm activity against Candida albicans M2396 at 50 uM incubated for 24 hrs by confocal laser-scanning microscopy
Assay type: functional, organism-based
Conditions: not given

SMILES | Activity
O=C1C=C(CBr)C(=C(Br)Br)O1 | Active

Test system: not listed separately
Assay: Toxicity in Galleria mellonella larvae assessed as reduction in animal survival at 100 uM
Conditions: not given

SMILES | Activity
O=C1C=C(CBr)C(=C(Br)Br)O1 | Non-Toxic
O=C1C=CC(=C(Cl)Cl)O1 | Non-Toxic

Test system: HK-2
Assay: Cytotoxicity against human HK-2 cells assessed as reduction in cell survival at 50 uM incubated for 24 to 48 hrs by MTT assay
Assay type: toxicity, cell-based
Conditions: hk-2, 50 µM, time 24-48 hrs

SMILES | Activity
O=C1C=C(CBr)C(=C(Br)Br)O1 | Toxic

Test system: Pseudomonas aeruginosa
Assay: Antibacterial activity against Pseudomonas aeruginosa PAR7244 assessed as bacterial growth inhibition at 50 uM incubated for 20 hrs by broth microdilution method
Assay type: functional, organism-based
Conditions: not given

SMILES | Activity
O=C1C=C(CBr)C(=C(Br)Br)O1 | inactive
O=C1C=CC(=C(c2ccc(C(F)(F)F)cc2)c2ccc(C(F)(F)F)cc2)O1 | inactive
COc1cccc(/C(Br)=C2\C=CC(=O)O2)c1 | inactive
O=C1C=CC(=C(c2ccc(F)cc2)c2ccc(F)cc2)O1 | inactive
O=C1OC(=C(c2ccc(C(F)(F)F)cc2)c2ccc(C(F)(F)F)cc2)C=C1Br | inactive
O=C1C=CC(=C(Cl)Cl)O1 | inactive
COc1ccc(C(=C2C=C(Br)C(=O)O2)c2ccc(OC)cc2)cc1 | inactive
O=C1C=CC(=C(c2cccs2)c2cccs2)O1 | inactive
O=C1C=C/C(=C(/Br)c2ccc(F)cc2)O1 | inactive
O=C1C=CC(=C(c2ccc(O)cc2)c2ccc(O)cc2)O1 | inactive
O=C1OC(=C(c2ccccc2)c2ccccc2)C=C1Br | inactive
O=C1C=C(CBr)C(=O)O1 | inactive
COc1ccc(C(=C2C=CC(=O)O2)c2ccc(OC)cc2)cc1 | inactive
O=C1C=C/C(=C(/Br)c2ccc([N+](=O)[O-])cc2)O1 | inactive
COc1ccccc1/C(Br)=C1\C=CC(=O)O1 | inactive
O=C1C=C/C(=C(/Br)c2cccc([N+](=O)[O-])c2)O1 | inactive
O=C1C=C/C(=C(/Cl)c2ccccc2)O1 | inactive
O=C1C=CC(=C(c2cccc([N+](=O)[O-])c2)c2cccc([N+](=O)[O-])c2)O1 | inactive
COc1ccc(/C(Br)=C2\C=CC(=O)O2)cc1 | inactive
O=C1C=C/C(=C(/Br)c2ccc(C(F)(F)F)cc2)O1 | inactive
O=C1C=C/C(=C(/Br)c2ccccc2)O1 | inactive
COc1ccccc1C(=C1C=CC(=O)O1)c1ccccc1OC | inactive
O=C1C=CC(=C(c2ccc([N+](=O)[O-])cc2)c2ccc([N+](=O)[O-])cc2)O1 | inactive
COc1ccc(/C(Cl)=C2\C=CC(=O)O2)cc1 | inactive
O=C1C=CC(=C(c2ccccc2)c2ccccc2)O1 | inactive

Test system: Stenotrophomonas maltophilia
Assay: Inhibition of biofilm formation in Stenotrophomonas maltophilia K279a at 50 uM incubated for 24 hrs by crystal violet staining based analysis
Assay type: functional, organism-based
Conditions: not given

SMILES | inhibition
O=C1C=C(CBr)C(=C(Br)Br)O1 | inactive
O=C1C=CC(=C(c2ccc(C(F)(F)F)cc2)c2ccc(C(F)(F)F)cc2)O1 | inactive
COc1cccc(/C(Br)=C2\C=CC(=O)O2)c1 | inactive
O=C1C=CC(=C(c2ccc(F)cc2)c2ccc(F)cc2)O1 | inactive
O=C1OC(=C(c2ccc(C(F)(F)F)cc2)c2ccc(C(F)(F)F)cc2)C=C1Br | inactive
O=C1C=CC(=C(Cl)Cl)O1 | inactive
COc1ccc(C(=C2C=C(Br)C(=O)O2)c2ccc(OC)cc2)cc1 | inactive
O=C1C=CC(=C(c2cccs2)c2cccs2)O1 | inactive
O=C1C=C/C(=C(/Br)c2ccc(F)cc2)O1 | inactive
O=C1C=CC(=C(c2ccc(O)cc2)c2ccc(O)cc2)O1 | inactive
O=C1OC(=C(c2ccccc2)c2ccccc2)C=C1Br | inactive
O=C1C=C(CBr)C(=O)O1 | inactive
COc1ccc(C(=C2C=CC(=O)O2)c2ccc(OC)cc2)cc1 | inactive
O=C1C=C/C(=C(/Br)c2ccc([N+](=O)[O-])cc2)O1 | inactive
COc1ccccc1/C(Br)=C1\C=CC(=O)O1 | inactive
O=C1C=C/C(=C(/Br)c2cccc([N+](=O)[O-])c2)O1 | inactive
O=C1C=C/C(=C(/Cl)c2ccccc2)O1 | inactive
O=C1C=CC(=C(c2cccc([N+](=O)[O-])c2)c2cccc([N+](=O)[O-])c2)O1 | inactive
COc1ccc(/C(Br)=C2\C=CC(=O)O2)cc1 | inactive
O=C1C=C/C(=C(/Br)c2ccc(C(F)(F)F)cc2)O1 | inactive
O=C1C=C/C(=C(/Br)c2ccccc2)O1 | inactive
COc1ccccc1C(=C1C=CC(=O)O1)c1ccccc1OC | inactive
O=C1C=CC(=C(c2ccc([N+](=O)[O-])cc2)c2ccc([N+](=O)[O-])cc2)O1 | inactive
COc1ccc(/C(Cl)=C2\C=CC(=O)O2)cc1 | inactive
O=C1C=CC(=C(c2ccccc2)c2ccccc2)O1 | inactive

Test system: Candida albicans
Assay: Inhibition of biofilm formation in RFP-expressing Candida albicans M2396 at 50 uM incubated for 24 hrs by crystal violet staining based analysis relative to control
Assay type: functional
Conditions: not given

SMILES | inhibition at 50 µM [%]
O=C1C=C(CBr)C(=C(Br)Br)O1 | 51
O=C1C=CC(=C(Cl)Cl)O1 | 21
COc1ccc(C(=C2C=CC(=O)O2)c2ccc(OC)cc2)cc1 | 61
O=C1C=C/C(=C(/Br)c2ccc(C(F)(F)F)cc2)O1 | 75

Test system: Stenotrophomonas maltophilia
Assay: Antibacterial activity against Stenotrophomonas maltophilia K279a assessed as bacterial growth inhibition at 50 uM incubated for 20 hrs by broth microdilution method
Assay type: functional, organism-based
Conditions: not given

SMILES | Activity
O=C1C=C(CBr)C(=C(Br)Br)O1 | inactive
O=C1C=CC(=C(c2ccc(C(F)(F)F)cc2)c2ccc(C(F)(F)F)cc2)O1 | inactive
COc1cccc(/C(Br)=C2\C=CC(=O)O2)c1 | inactive
O=C1C=CC(=C(c2ccc(F)cc2)c2ccc(F)cc2)O1 | inactive
O=C1OC(=C(c2ccc(C(F)(F)F)cc2)c2ccc(C(F)(F)F)cc2)C=C1Br | inactive
O=C1C=CC(=C(Cl)Cl)O1 | inactive
COc1ccc(C(=C2C=C(Br)C(=O)O2)c2ccc(OC)cc2)cc1 | inactive
O=C1C=CC(=C(c2cccs2)c2cccs2)O1 | inactive
O=C1C=C/C(=C(/Br)c2ccc(F)cc2)O1 | inactive
O=C1C=CC(=C(c2ccc(O)cc2)c2ccc(O)cc2)O1 | inactive
O=C1OC(=C(c2ccccc2)c2ccccc2)C=C1Br | inactive
O=C1C=C(CBr)C(=O)O1 | inactive
COc1ccc(C(=C2C=CC(=O)O2)c2ccc(OC)cc2)cc1 | inactive
O=C1C=C/C(=C(/Br)c2ccc([N+](=O)[O-])cc2)O1 | inactive
COc1ccccc1/C(Br)=C1\C=CC(=O)O1 | inactive
O=C1C=C/C(=C(/Br)c2cccc([N+](=O)[O-])c2)O1 | inactive
O=C1C=C/C(=C(/Cl)c2ccccc2)O1 | inactive
O=C1C=CC(=C(c2cccc([N+](=O)[O-])c2)c2cccc([N+](=O)[O-])c2)O1 | inactive
COc1ccc(/C(Br)=C2\C=CC(=O)O2)cc1 | inactive
O=C1C=C/C(=C(/Br)c2ccc(C(F)(F)F)cc2)O1 | inactive
O=C1C=C/C(=C(/Br)c2ccccc2)O1 | inactive
COc1ccccc1C(=C1C=CC(=O)O1)c1ccccc1OC | inactive
O=C1C=CC(=C(c2ccc([N+](=O)[O-])cc2)c2ccc([N+](=O)[O-])cc2)O1 | inactive
COc1ccc(/C(Cl)=C2\C=CC(=O)O2)cc1 | inactive
O=C1C=CC(=C(c2ccccc2)c2ccccc2)O1 | inactive

Test system: Staphylococcus aureus
Assay: Inhibition of biofilm formation in Staphylococcus aureus Newman ATCC 25904 at 50 uM incubated for 24 hrs by crystal violet staining based assay relative to control
Assay type: functional
Conditions: not given

SMILES | inhibition at 50 µM [%]
O=C1C=C(CBr)C(=C(Br)Br)O1 | 71
O=C1C=CC(=C(c2ccc(O)cc2)c2ccc(O)cc2)O1 | 52
COc1ccc(C(=C2C=CC(=O)O2)c2ccc(OC)cc2)cc1 | 44
COc1ccccc1C(=C1C=CC(=O)O1)c1ccccc1OC | 7

Test system: Candida albicans
Assay: Inhibition of biofilm formation in developmental phase of Candida albicans M2396 at 50 uM incubated for 24 hrs by crystal violet staining based analysis relative to control
Assay type: functional
Conditions: not given

SMILES | inhibition at 50 µM [%]
COc1ccc(C(=C2C=CC(=O)O2)c2ccc(OC)cc2)cc1 | 75
O=C1C=C/C(=C(/Br)c2ccc(C(F)(F)F)cc2)O1 | 85

Test system: not listed separately
Assay: Toxicity in Galleria mellonella larvae assessed as signs of melanization at 100 uM
Conditions: not given

SMILES | Activity
O=C1C=C(CBr)C(=C(Br)Br)O1 | Non-Toxic
O=C1C=CC(=C(Cl)Cl)O1 | Non-Toxic
